Measured values as given in the supplement of paper PMC6045584.
± gives the standard deviation of the averaged measurements.

Tests used:
FLUOROURACIL = compound: O=c1[nH]cc(F)c(=O)[nH]1 [FLUOROURACIL]; assay: surviving fraction relative to DMSO-only wells; higher = less growth inhibition; conditions: exposure time: 5 days
Summary of the method: (§1)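 Continuous five-day exposure to inhibitors at 0.5, 1, 5, 10, 50, 100, 500 and 1000 nM started 24 hours after log-phase tumour cell lines were seeded at 250–500 cells per well in 384-well plates. Luminescence was read after 10 minutes at room temperature. Viability is given as surviving fraction, meaning CellTiter-Glo luminescence normalised to the median of DMSO-only wells.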

DOXORUBICIN = compound: COc1cccc2c1C(=O)c1c(O)c3c(c(O)c1C2=O)C[C@@](O)(C(=O)CO)C[C@@H]3O[C@H]1C[C@H](N)[C@H](O)[C@H](C)O1 [DOXORUBICIN]; assay: as above; conditions: exposure time: 5 days
Summary of the method: as §1

Row | Test System | surviving fraction (FLUOROURACIL; 0.5 nM) | surviving fraction (FLUOROURACIL; 1 nM) | surviving fraction (FLUOROURACIL; 5 nM) | surviving fraction (FLUOROURACIL; 10 nM) | surviving fraction (FLUOROURACIL; 50 nM) | surviving fraction (FLUOROURACIL; 100 nM) | surviving fraction (FLUOROURACIL; 500 nM) | surviving fraction (FLUOROURACIL; 1000 nM) | surviving fraction (DOXORUBICIN; 0.5 nM) | surviving fraction (DOXORUBICIN; 1 nM) | surviving fraction (DOXORUBICIN; 5 nM) | surviving fraction (DOXORUBICIN; 10 nM) | surviving fraction (DOXORUBICIN; 50 nM) | surviving fraction (DOXORUBICIN; 100 nM) | surviving fraction (DOXORUBICIN; 500 nM) | surviving fraction (DOXORUBICIN; 1000 nM)
1 | SCC47 HEADNECK | 1.12 ± 0.088 | 1.14 ± 0.026 | 1.22 ± 0.15 | 1.1 ± 0.043 | 1.02 ± 0.048 | 0.945 ± 0.051 | 0.854 ± 0.047 | 0.956 ± 0.057 | 1.021 ± 0.0081 | 1.03 ± 0.11 | 1.09 ± 0.09 | 0.966 ± 0.051 | 0.573 ± 0.027 | 0.597 ± 0.039 | 0.09 ± 0.0027 | 0.0307 ± 0.0015
2 | HELA CERVIX | 1.07 ± 0.017 | 0.993 ± 0.031 | 0.997 ± 0.019 | 1.03 ± 0.037 | 1.01 ± 0.062 | 1.06 ± 0.027 | 1.3 ± 0.035 | 1.15 ± 0.096 | 0.998 ± 0.055 | 1.03 ± 0.022 | 0.897 ± 0.029 | 0.595 ± 0.031 | 0.316 ± 0.007 | 0.309 ± 0.022 | 0.0252 ± 0.00076 | 0.0252 ± 0.0013
3 | MDAMB231 BREAST | 0.978 ± 0.019 | 0.947 ± 0.014 | 0.975 ± 0.039 | 0.972 ± 0.022 | 0.961 ± 0.035 | 0.914 ± 0.041 | 0.986 ± 0.021 | 0.865 ± 0.022 | 0.979 ± 0.029 | 0.992 ± 0.037 | 0.946 ± 0.024 | 0.817 ± 0.026 | 0.53 ± 0.014 | 0.474 ± 0.011 | 0.125 ± 0.0043 | 0.0638 ± 0.0041
4 | PCI30 HEADNECK | 0.934 ± 0.056 | 1.06 ± 0.029 | 1.08 ± 0.058 | 1.1 ± 0.058 | 0.97 ± 0.067 | 0.981 ± 0.082 | 0.959 ± 0.06 | 0.931 ± 0.034 | 0.979 ± 0.094 | 0.929 ± 0.01 | 0.92 ± 0.13 | 0.637 ± 0.061 | 0.551 ± 0.022 | 0.587 ± 0.024 | 0.079 ± 0.023 | 0.03 ± 0.0027
5 | RDES SOFT TISSUE | 1.09 ± 0.053 | 0.968 ± 0.032 | 1.06 ± 0.047 | 0.912 ± 0.048 | 0.788 ± 0.19 | 0.632 ± 0.01 | 1.3 ± 0.11 | 1.51 ± 0.22 | 1.15 ± 0.035 | 1.15 ± 0.061 | 1.04 ± 0.05 | 1.25 ± 0.14 | 0.16 ± 0.021 | 0.0457 ± 0.004 | 0.087 ± 0.0098 | 0.0413 ± 0.0031
6 | SCC003 HEADNECK | 1.02 ± 0.082 | 1.05 ± 0.042 | 1.03 ± 0.024 | 0.965 ± 0.044 | 1.02 ± 0.12 | 0.881 ± 0.036 | 0.6943 ± 0.005 | 0.87 ± 0.13 | 0.959 ± 0.12 | 1.04 ± 0.12 | 1.02 ± 0.1 | 0.855 ± 0.098 | 0.396 ± 0.046 | 0.431 ± 0.065 | 0.11 ± 0.025 | 0.0417 ± 0.0086
7 | A549 LUNG | 1.093 ± 0.0015 | 1.055 ± 0.007 | 1.051 ± 0.001 | 1.04 ± 0.032 | 1.11 ± 0.019 | 1.029 ± 0.0045 | 1.05 ± 0.025 | 0.554 ± 0.046 | 0.96 ± 0.032 | 0.964 ± 0.039 | 0.963 ± 0.046 | 1.01 ± 0.032 | 0.565 ± 0.031 | 0.496 ± 0.017 | 0.189 ± 0.015 | 0.083 ± 0.001
8 | SG28 HEADNECK | 1.04 ± 0.056 | 1.08 ± 0.056 | 0.944 ± 0.078 | 1.06 ± 0.036 | 0.756 ± 0.013 | 0.756 ± 0.12 | 0.781 ± 0.059 | 0.693 ± 0.068 | 1.11 ± 0.12 | 1.11 ± 0.083 | 0.976 ± 0.081 | 1.03 ± 0.011 | 0.851 ± 0.13 | 0.609 ± 0.014 | 0.0457 ± 0.0098 | 0.038 ± 0.0036
9 | MDAMB436 BREAST | 0.937 ± 0.046 | 0.921 ± 0.063 | 0.964 ± 0.12 | 0.846 ± 0.11 | 0.84 ± 0.12 | 0.815 ± 0.029 | 0.722 ± 0.031 | 0.625 ± 0.013 | 0.895 ± 0.077 | 0.905 ± 0.069 | 0.822 ± 0.12 | 0.783 ± 0.026 | 0.484 ± 0.036 | 0.423 ± 0.049 | 0.297 ± 0.016 | 0.269 ± 0.031
10 | MDAMB157 BREAST | 0.981 ± 0.019 | 0.969 ± 0.12 | 1.05 ± 0.055 | 1.05 ± 0.1 | 1.02 ± 0.03 | 0.978 ± 0.017 | 0.943 ± 0.044 | 0.836 ± 0.059 | 0.918 ± 0.025 | 0.869 ± 0.053 | 0.498 ± 0.058 | 0.213 ± 0.02 | 0.375 ± 0.042 | 0.214 ± 0.014 | 0.053 ± 0.0027 | 0.0307 ± 0.0046
11 | HT1080 SOFT TISSUE | 1.06 ± 0.016 | 1.087 ± 0.0087 | 1.07 ± 0.0075 | 1.07 ± 0.029 | 0.965 ± 0.061 | 0.991 ± 0.021 | 0.637 ± 0.063 | 0.406 ± 0.019 | 0.992 ± 0.01 | 0.95 ± 0.041 | 0.553 ± 0.0044 | 0.333 ± 0.037 | 0.265 ± 0.0078 | 0.222 ± 0.018 | 0.0267 ± 0.00058 | 0.0437 ± 0.0045
12 | CME SYNOVIAL | 1.35 ± 0.12 | 1.26 ± 0.024 | 1.27 ± 0.032 | 1.21 ± 0.036 | 1.02 ± 0.1 | 1.03 ± 0.1 | 0.931 ± 0.15 | 0.554 ± 0.017 | 1.14 ± 0.094 | 0.998 ± 0.15 | 0.567 ± 0.12 | 0.328 ± 0.037 | 0.237 ± 0.023 | 0.215 ± 0.016 | 0.203 ± 0.013 | 0.284 ± 0.036
13 | U2OS BONE | 1.02 ± 0.021 | 1.04 ± 0.025 | 1.083 ± 0.0072 | 1.05 ± 0.05 | 1.01 ± 0.011 | 0.966 ± 0.083 | 0.843 ± 0.051 | 0.674 ± 0.043 | 1.04 ± 0.053 | 1.01 ± 0.015 | 0.86 ± 0.018 | 0.72 ± 0.05 | 0.606 ± 0.037 | 0.376 ± 0.013 | 0.04 ± 0.0017 | 0.0373 ± 0.0021
14 | H23 LUNG | 1.06 ± 0.062 | 1.02 ± 0.034 | 1.05 ± 0.026 | 1.04 ± 0.036 | 1.1 ± 0.061 | 1.02 ± 0.046 | 1.04 ± 0.044 | 0.659 ± 0.029 | 1.01 ± 0.016 | 1.03 ± 0.027 | 1 ± 0.034 | 0.629 ± 0.058 | 0.403 ± 0.031 | 0.237 ± 0.028 | 0.0293 ± 0.0015 | 0.0267 ± 0.0021
15 | CAL72 BONE | 1.07 ± 0.014 | 1.056 ± 0.0093 | 1.03 ± 0.051 | 1.05 ± 0.039 | 1.02 ± 0.037 | 0.944 ± 0.093 | 0.955 ± 0.16 | 0.751 ± 0.16 | 1.05 ± 0.041 | 0.743 ± 0.018 | 1.01 ± 0.033 | 0.826 ± 0.045 | 0.298 ± 0.042 | 0.299 ± 0.018 | 0.0937 ± 0.0021 | 0.114 ± 0.0055
16 | HCC202 BREAST | 1.03 ± 0.41 | 1.22 ± 0.26 | 1.02 ± 0.15 | 1.13 ± 0.24 | 0.966 ± 0.12 | 1.15 ± 0.52 | 0.895 ± 0.3 | 0.866 ± 0.29 | 1.2 ± 0.18 | 1.26 ± 0.26 | 0.896 ± 0.058 | 1.04 ± 0.49 | 0.697 ± 0.069 | 0.457 ± 0.065 | 0.0987 ± 0.019 | 0.0423 ± 0.0078
17 | COLO320DM LARGE INTESTINE | 1.07 ± 0.14 | 1.06 ± 0.051 | 1.09 ± 0.019 | 1.05 ± 0.1 | 0.988 ± 0.083 | 0.863 ± 0.053 | 0.492 ± 0.035 | 0.347 ± 0.023 | 1.07 ± 0.064 | 1.13 ± 0.02 | 1.13 ± 0.12 | 1.09 ± 0.035 | 1.05 ± 0.091 | 0.787 ± 0.14 | 0.446 ± 0.014 | 0.388 ± 0.02
18 | 93VU HEADNECK | 1.01 ± 0.11 | 1 ± 0.052 | 1.07 ± 0.089 | 1.05 ± 0.11 | 0.884 ± 0.082 | 0.884 ± 0.0072 | 0.665 ± 0.062 | 0.882 ± 0.063 | 1.03 ± 0.063 | 1.08 ± 0.11 | 1.12 ± 0.085 | 1.09 ± 0.06 | 0.697 ± 0.049 | 0.525 ± 0.046 | 0.249 ± 0.034 | 0.109 ± 0.016
19 | CADOES1 SOFT TISSUE | 0.969 ± 0.035 | 0.925 ± 0.057 | 0.907 ± 0.13 | 0.963 ± 0.097 | 0.968 ± 0.03 | 0.912 ± 0.098 | 0.905 ± 0.055 | 0.775 ± 0.081 | 0.93 ± 0.061 | 0.795 ± 0.037 | 0.926 ± 0.078 | 0.812 ± 0.12 | 0.573 ± 0.052 | 0.323 ± 0.035 | 0.093 ± 0.0087 | 0.0643 ± 0.011
20 | YAMATO SYNOVIAL | 1.2 ± 0.08 | 1.15 ± 0.056 | 1.3 ± 0.021 |  | 0.921 ± 0.061 | 0.829 ± 0.046 | 0.791 ± 0.053 | 0.654 ± 0.028 | 1.1 ± 0.058 | 1.14 ± 0.058 | 0.963 ± 0.069 | 0.7417 ± 0.0035 | 0.388 ± 0.018 | 0.329 ± 0.03 | 0.258 ± 0.012 | 0.341 ± 0.016
21 | HCC1395 BREAST | 1.01 ± 0.093 | 0.966 ± 0.21 | 1.13 ± 0.1 | 1.16 ± 0.072 | 0.945 ± 0.1 | 0.955 ± 0.12 | 0.887 ± 0.053 | 0.947 ± 0.077 | 0.926 ± 0.18 | 1.11 ± 0.18 | 1.03 ± 0.036 | 1.19 ± 0.11 | 0.928 ± 0.11 | 1.07 ± 0.08 | 0.693 ± 0.085 | 0.808 ± 0.091
